Reference: the NIST ThermoML archive (doi:10.1016/j.fluid.2007.07.029)
± gives the expanded uncertainty stated by the source.

Details: Liquid, Transpiration method

CCCCC(CC)C(=O)OCC(COC(=O)C(CC)CCCC)(COC(=O)C(CC)CCCC)COC(=O)C(CC)CCCC (stereo not given) [pentaerythritol tetra(2-ethylhexanoate)]
Details	vapor or sublimation pressure [kPa]
353.96 K	1.27e-07 ± 8.2e-08
363.89 K	3.67e-07 ± 9.2e-08
373.81 K	1.07e-06 ± 1.4e-07
383.56 K	3.37e-06 ± 3.3e-07
393.56 K	8.94e-06 ± 8.1e-07
403.44 K	2.37e-05 ± 2.1e-06
413.44 K	5.82e-05 ± 5.1e-06
423.4 K	0.000133 ± 1.2e-05
433.18 K	0.000287 ± 2.5e-05
443.17 K	0.000644 ± 5.6e-05

CCCCCCC(=O)OCC(COC(=O)CCCCCC)(COC(=O)CCCCCC)COC(=O)CCCCCC [pentaerythritol tetraheptanoate]
Details	vapor or sublimation pressure [kPa]
373.81 K	2.58e-07 ± 8.8e-08
393.48 K	2.61e-06 ± 2.7e-07
413.4 K	2.2e-05 ± 2e-06
433.36 K	0.000131 ± 1.2e-05

CCCCCCCCC(=O)OCC(COC(=O)CCCCCCCC)(COC(=O)CCCCCCCC)COC(=O)CCCCCCCC [pentaerythritol tetranonanoate]
Details	vapor or sublimation pressure [kPa]
394.55 K	5.57e-08 ± 8e-08
414.72 K	5.21e-07 ± 9.9e-08
435.03 K	3.98e-06 ± 3.8e-07
435.11 K	3.97e-06 ± 3.8e-07
455.36 K	2.82e-05 ± 2.5e-06
476.47 K	0.000174 ± 1.5e-05

CCCCC(=O)OCC(COC(=O)CCCC)(COC(=O)CCCC)COC(=O)CCCC [pentaerythritol tetrapentanoate]
Details	vapor or sublimation pressure [kPa]
334.02 K	2.55e-07 ± 8.7e-08
353.94 K	2.88e-06 ± 2.9e-07
373.62 K	2.61e-05 ± 2.3e-06
393.34 K	0.000166 ± 1.5e-05
413.08 K	0.000935 ± 8.2e-05
